Assays:
[1] = test system: M. smegmatis ATCC 607; test: MIC, broth microdilution; assay type: cell-based, Mycobacterium smegmatis; settings: Mycolicibacterium smegmatis, ATCC607, Table 1
Excerpt: (§1) The microbial strains used in this study were obtained from the collection of the Gause Institute of New Antibiotics. The control strains included in the analysis were S. aureus ATCC 29213, E. coli ATCC 25922, P. aeruginosa ATCC 27853, M. smegmatis ATCC 607. Clinical isolates E. coli MAR17-1350, K. pneumoniae APEX-5, K. pneumoniae MAR14-3395, and K. pneumoniae MAR18-1752 with multidrug resistance, including resistance to aminoglycosides were kindly provided by the Research Institute of Antimicrobial Chemotherapy (RIAC) of the Smolensk State Medical University, Smolensk. The microbial cultures were stored at −75 °C in trypticase soy broth (Becton, Dickinson, France) containing 10–15% glycerol. Storage was carried out in accordance with CLSI guidelines. Prior to experimentation, the bacterial strains were revived from cryopreservation by inoculating them onto trypticase soy agar (Becton, Dickinson, France) and incubating at (36 ± 1) °C for 16–24 h. Individual morphologically homogeneous colonies were then suspended in sterile physiological saline, and the turbidity of the suspension was adjusted to 0.5 McFarland units using a DEN-1 spectrophotometer (Biosan, Riga, Latvia), which corresponds to a concentration of 1.5 × 10^8 CFU/mL.
(§2) The samples were dissolved in sterile distilled water, depending on the physicochemical properties of the compounds under investigation, to a concentration of 10,000 µg/mL. Working solutions were then prepared by serial dilution, resulting in concentrations ranging from 64 µg/mL to 0.125 µg/mL.
(§3) Activity was evaluated by determining the minimum inhibitory concentration (MIC) values using the microdilution method in Mueller–Hinton Broth (Beckton and Dickinson, Le Pont-de-Claix, France), in accordance with the standard procedure for assessing the antimicrobial susceptibility of microorganisms.
(§4) The analysis was conducted in 96-well microtiter plates (Medpolymer, Saint Petersburg, Russia). The bacterial inoculum was introduced within 15 min of preparation. MIC values were determined after incubation for 15–18 h at (36 ± 1) °C. Microbial growth in the presence of the tested compounds was compared to the growth control (without exposure to the test samples). The MIC was defined as the lowest concentration at which visible microbial growth was inhibited.
(§5) To ensure the accuracy of the results, the control antibiotics kanamycin A, gentamycin, and tobramycin (Abcr GmbH, Karlsruhe, Germany) were included, along with standard reference strains: E. coli ATCC 25922. The MIC values for kanamycin A were determined as follows: E. coli ATCC 25922—1–4 µg/mL [22]. For gentamycin, the MIC values were E. coli ATCC 25922–0.25–1 µg/mL [23]. For tobramycin, the MIC values were E. coli ATCC 25922–0.25–1 µg/mL [23]. The MIC values of the reference strains were required to fall within the acceptable ranges specified in [24], provided that standard assay conditions were maintained.

[2] = test system: E. coli JW5503 with pJC27 β-galactosidase codon 537 reporter; test: Translation accuracy using β-galactosidase reporters; assay type: cell-based; settings: 0.1 μL of 50 mg/mL, 37 °C, 18 h, codon 537 GAC/GGG reporters
Procedure: To evaluate translation accuracy in the presence of antibiotics, E. coli JW5503 (kanamycin resistance cassette removed as per) was transformed with pJC27 plasmids. […] The synthesis of active β-galactosidase depends on translation errors occurring (when codons GAC and GGG are read as GAA). Petri dishes (9 cm) containing 20 mL of solid LB agar (1.5%), supplemented with chloramphenicol (11.3 μg/mL) and X-Gal (80 μg/mL), were prepared. A secondary soft-agar layer comprising 3.5 mL of LB agar (0.6%) supplemented with 11.3 μg/mL chloramphenicol and 0.5 mL of liquid culture (A600~1.0) was added and allowed to solidify. Antibiotics were applied to the plates in 0.1 μL aliquots at a concentration of 50 mg/mL for tobramycin, streptomycin, kanamycin, and apramycin, and for 5a, 5b, 8a, and 8b. The plates were then incubated at 37 °C for 18 h. […] The results were documented using a Samsung Galaxy Tab A71 camera.

[3] = test system: E. coli JW5503 KanR; test: MIC against transformant carrying APH(3′)-II; assay type: cell-based; settings: Escherichia coli, JW5503KANR
Procedure: (§6) The determination of the MIC values was performed on five strains from the working collection of MSU. E. coli JW5503 [25], which lacked a kanamycin resistance cassette that had been removed as per the method outlined in [26], and a strain derived from this strain through in vitro selection with kanamycin. […] Strains containing AG-modifying enzymes were obtained through the transformation of E. coli JW5503 with plasmids that carried cassettes of resistance, namely pCRISPomyces-2–AAC(3)-IV (Addgene #61737), pdualrep2–APH(3′)-II [27] and pt67–ANT(3″). The MIC determination was performed as described for JW5503 in [19].

[4] = test system: E. coli JW5503 ApmR; test: MIC against transformant carrying AAC(3)-IV; assay type: cell-based; settings: Escherichia coli, JW5503APMR
Procedure: as §6

[5] = test system: E. coli JW5503 SmR; test: MIC against transformant carrying ANT(3″); assay type: cell-based; settings: Escherichia coli, JW5503SMR
Procedure: as §6

[6] = test system: E. coli JW5503 kanS; test: MIC against E. coli JW5503 parent strain; assay type: cell-based; settings: Escherichia coli, JW5503KANS
Procedure: as §6

[7] = test system: E. coli JW5503 EF-G P610T; test: MIC against aminoglycoside-resistant EF-G mutant; assay type: cell-based; settings: Escherichia coli
Procedure: as §6

[8] = test system: E. coli ATCC 25922; test: MIC, broth microdilution; assay type: cell-based, Escherichia coli; settings: Escherichia coli, ATCC25922, Table 1, read-out: MIC
Excerpt: as §1, §2, §3, §4, §5

SMILES | MIC [1] [µg/mL] | induction of translation errors (blue staining at edge of inhibition zone) [2] | MIC [3] [µg/mL] | MIC [4] [µg/mL] | MIC [5] [µg/mL] | MIC [6] [µg/mL] | MIC [7] [µg/mL] | MIC [8] [µg/mL]
CNC1C(OC2OC(CNCCNC(=N)N)C(N)C(O)C2O)OC2CC(N)C(OC3C(N)CC(N)C(O)C3O)OC2C1O (centres unmarked) [Compound 8a, 6″-((2-Guanidinoethyl-1)-amino)-6″-deoxyapramycin acetate] | 0.125 | caused blue staining of the bacterial lawn | 8 | > 256 | 16 | 8 | 32 | 1
CNC1C(OC2OC(CNCCCNC(=N)N)C(N)C(O)C2O)OC2CC(N)C(OC3C(N)CC(N)C(O)C3O)OC2C1O (centres unmarked) [Compound 8b, 6″-((3-Guanidinopropyl-1)-amino)-6″-deoxyapramycin acetate] | 0.125 | caused blue staining of the bacterial lawn | 16 | > 256 | 32 | 16 | 64 | 1
CNC1C(OC2OC(CNCCN)C(N)C(O)C2O)OC2CC(N)C(OC3C(N)CC(N)C(O)C3O)OC2C1O (centres unmarked) [Compound 5a, 6″-((2-Aminoethyl-1)-amino)-6″-deoxyapramycin acetate] | 0.25 | caused blue staining of the bacterial lawn | 16 | > 256 | 32 | 16 | 32 | 2
CNC1C(OC2OC(CNCCCN)C(N)C(O)C2O)OC2CC(N)C(OC3C(N)CC(N)C(O)C3O)OC2C1O (centres unmarked) [Compound 5b, 6″-((3-Aminopropyl-1)-amino)-6″-deoxyapramycin acetate] | 0.25 | caused blue staining of the bacterial lawn | 32 | > 256 | 32 | 32 | 64 | 2

Reference: paper PMC12736951, “Design, Synthesis, and Biological Evaluation of 6″-Modified Apramycin Derivatives to Overcome Aminoglycoside Resistance” (Pharmaceutics, 2025)
